Experimental data reported in patent publication US6017883A, “Composition and methods for the inhibition of phagocytes” (Research Corporation Technologies, Inc., priority 1998, dated 2000).
Where no end group is shown, it is not given here.

How the values were obtained:
PMN [1] = experiment: fMLP-induced PMN calcium transients; assay type: cell-based, human; settings: pertussis toxin pretreatment of indo-loaded PMN
PMN [2] = settings: pertussis toxin pretreatment of indo-loaded PMN
PMN [3] = experiment: PMN viability by LDH release; settings: concentrations that inhibited chemotaxis and oxidant production
Description: PMN viability after exposure to NIP (seq id no:1) or control peptide for varying amounts of time was assessed by measuring LDH release using a commercially available kit (Sigma).

Substance	rise in cytosolic calcium concentration induced by 1 μM fMLP (PMN [1])	ionomycin-induced rise in cytosolic calcium (PMN [2])	cellular viability as determined by LDH release (PMN [3])
pertussis toxin	Attenuation	no effect	–
REGSYFFGDNA [NIP, Arg-Glu-Gly-Ser-Tyr-Phe-Phe-Gly-Asp-Asn-Ala]	–	–	did not significantly alter cellular viability
